PubChem BioAssay (NCI)
Where “and” joins values, the source holds several entries; their conditions need not be identical. Equal entries are not always repeated.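 Protocol summary: plate cells (96-well), add compound at 5 concentrations, incubate 48 h, interpolate endpoints linearly. At the GI50, growth is halved. Definition used: TGI = concentration required for complete inhibition of growth.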

Experiments:
Assay in all cases: DTP human tumour cell line panel, 48 h
786-0 renal = system: 786-0 renal
A498 renal = system: A498 renal
A549 NSCLC = system: A549 NSCLC
ACHN renal = system: ACHN renal
BT-549 breast = system: BT-549 breast
CAKI-1 renal = system: CAKI-1 renal
CCRF-CEM leukemia = system: CCRF-CEM leukemia
COLO 205 colon = system: COLO 205 colon
DU-145 prostate = system: DU-145 prostate
EKVX NSCLC = system: EKVX NSCLC
HCC-2998 colon = system: HCC-2998 colon
HCT-116 colon = system: HCT-116 colon
HCT-15 colon = system: HCT-15 colon
HL-60(TB) leukemia = system: HL-60(TB) leukemia
HOP-62 NSCLC = system: HOP-62 NSCLC
HOP-92 NSCLC = system: HOP-92 NSCLC
HS 578T breast = system: HS 578T breast
HT29 colon = system: HT29 colon
IGROV1 ovarian = system: IGROV1 ovarian
K-562 leukemia = system: K-562 leukemia
KM12 colon = system: KM12 colon
LOX IMVI melanoma = system: LOX IMVI melanoma
M14 melanoma = system: M14 melanoma
MALME-3M melanoma = system: MALME-3M melanoma
MCF7 breast = system: MCF7 breast
MDA-MB-231 breast = system: MDA-MB-231 breast
MDA-MB-435 = system: MDA-MB-435
MOLT-4 leukemia = system: MOLT-4 leukemia
NCI-H226 lung = system: NCI-H226 lung
NCI-H23 lung = system: NCI-H23 lung
NCI-H460 lung = system: NCI-H460 lung
NCI-H522 lung = system: NCI-H522 lung
NCI/ADR-RES ovarian = system: NCI/ADR-RES ovarian
OVCAR-3 ovarian = system: OVCAR-3 ovarian
OVCAR-4 ovarian = system: OVCAR-4 ovarian
OVCAR-5 ovarian = system: OVCAR-5 ovarian
OVCAR-8 ovarian = system: OVCAR-8 ovarian
PC-3 prostate = system: PC-3 prostate
RPMI-8226 leukemia = system: RPMI-8226 leukemia
RXF 393 renal = system: RXF 393 renal
SF-268 CNS = system: SF-268 CNS
SF-295 CNS = system: SF-295 CNS
SF-539 CNS = system: SF-539 CNS
SK-MEL-2 melanoma = system: SK-MEL-2 melanoma
SK-MEL-28 melanoma = system: SK-MEL-28 melanoma
SK-MEL-5 melanoma = system: SK-MEL-5 melanoma
SK-OV-3 ovarian = system: SK-OV-3 ovarian
SN12C renal = system: SN12C renal
SNB-19 CNS = system: SNB-19 CNS
SNB-75 CNS = system: SNB-75 CNS
SR leukemia = system: SR leukemia
SW-620 colon = system: SW-620 colon
T-47D breast = system: T-47D breast
TK-10 renal = system: TK-10 renal
U251 CNS = system: U251 CNS
UACC-257 melanoma = system: UACC-257 melanoma
UACC-62 melanoma = system: UACC-62 melanoma
UO-31 renal = system: UO-31 renal

Cc1ccc(F)c(NC(=O)Nc2ccc(-c3cccc4[nH]nc(N)c34)cc2)c1
GI50 (786-0 renal): 3.58 µM and 4.22 µM
TGI (786-0 renal): 18 µM and > 10 µM
GI50 (A498 renal): 2.24 µM and 2.71 µM
TGI (A498 renal): 7.02 µM and 9.3 µM
GI50 (A549 NSCLC): 2.31 µM and 2.12 µM
TGI (A549 NSCLC): 5.97 µM and 4.95 µM
GI50 (ACHN renal): 3.14 µM and 2.85 µM
TGI (ACHN renal): 11.4 µM and > 10 µM
GI50 (BT-549 breast): 2.64 µM and 3.39 µM
TGI (BT-549 breast): 9.82 µM and > 10 µM
GI50 (CAKI-1 renal): 2.83 µM and 3.85 µM
TGI (CAKI-1 renal): 10.1 µM and > 10 µM
GI50 (CCRF-CEM leukemia): 2.9 µM and 3.4 µM
TGI (CCRF-CEM leukemia): 9.29 µM and > 10 µM
GI50 (COLO 205 colon): 2.21 µM and 2.27 µM
TGI (COLO 205 colon): 4.32 µM and 4.9 µM
GI50 (DU-145 prostate): 3.68 µM and 3.37 µM
TGI (DU-145 prostate): 13.1 µM and > 10 µM
GI50 (EKVX NSCLC): 3.58 µM and 3.52 µM
TGI (EKVX NSCLC): 16.6 µM and > 10 µM
GI50 (HCC-2998 colon): 2.52 µM and 2.79 µM
TGI (HCC-2998 colon): 6.67 µM and 7.81 µM
GI50 (HCT-116 colon): 3.12 µM and 3.5 µM
TGI (HCT-116 colon): 11.4 µM and > 10 µM
GI50 (HCT-15 colon): 3.21 µM and 3.11 µM
TGI (HCT-15 colon): 11.2 µM and > 10 µM
GI50 (HL-60(TB) leukemia): 1.95 µM and 3.29 µM
TGI (HL-60(TB) leukemia): 5.63 µM and > 10 µM
GI50 (HOP-62 NSCLC): 4.07 µM and 3.12 µM
TGI (HOP-62 NSCLC): 16.2 µM and > 10 µM
GI50 (HOP-92 NSCLC): 3.67 µM and 3.17 µM
TGI (HOP-92 NSCLC): 14.4 µM and 8.25 µM
GI50 (HS 578T breast): 2.5 µM and 2.91 µM
TGI (HS 578T breast): 12.6 µM and > 10 µM
GI50 (HT29 colon): 2.46 µM and 2.86 µM
TGI (HT29 colon): 6.93 µM and > 10 µM
GI50 (IGROV1 ovarian): 4 µM and 3.13 µM
TGI (IGROV1 ovarian): 15.8 µM and > 10 µM
GI50 (K-562 leukemia): 3.66 µM and 2.28 µM
TGI (K-562 leukemia): > 57.5 µM and 9.29 µM
GI50 (KM12 colon): 1.64 µM and 1.55 µM
TGI (KM12 colon): 4.94 µM and 5.79 µM
GI50 (LOX IMVI melanoma): 1.8 µM and 2.03 µM
TGI (LOX IMVI melanoma): 3.62 µM and 4.97 µM
GI50 (M14 melanoma): 3.63 µM and 3.58 µM
TGI (M14 melanoma): 15.5 µM and > 10 µM
GI50 (MALME-3M melanoma): 4.24 µM and 2.64 µM
TGI (MALME-3M melanoma): 16.4 µM and 7.36 µM
GI50 (MCF7 breast): 2.29 µM and 2.07 µM
TGI (MCF7 breast): 8.4 µM and > 10 µM
GI50 (MDA-MB-231 breast): 4.31 µM and 3.39 µM
TGI (MDA-MB-231 breast): 16.4 µM and > 10 µM
GI50 (MDA-MB-435): 2.68 µM and 2.88 µM
TGI (MDA-MB-435): 11 µM and > 10 µM
GI50 (MOLT-4 leukemia): 3.13 µM and 3.08 µM
TGI (MOLT-4 leukemia): > 42.9 µM
GI50 (NCI-H226 lung): 5.88 µM and 6.06 µM
TGI (NCI-H226 lung): 20.5 µM and > 10 µM
GI50 (NCI-H23 lung): 2.4 µM and 3.41 µM
TGI (NCI-H23 lung): 6.17 µM and > 10 µM
GI50 (NCI-H460 lung): 2.42 µM and 2.76 µM
TGI (NCI-H460 lung): 5.94 µM and 8.32 µM
GI50 (NCI-H522 lung): 1.87 µM and 2.19 µM
TGI (NCI-H522 lung): 3.79 µM and 5.28 µM
GI50 (NCI/ADR-RES ovarian): 3.4 µM and 3.81 µM
TGI (NCI/ADR-RES ovarian): 18.6 µM and > 10 µM
GI50 (OVCAR-3 ovarian): 2.85 µM and 3.15 µM
TGI (OVCAR-3 ovarian): 7.76 µM and > 10 µM
GI50 (OVCAR-4 ovarian): 3.1 µM and 3.8 µM
TGI (OVCAR-4 ovarian): 17.1 µM and > 10 µM
GI50 (OVCAR-5 ovarian): 2.74 µM and 3.42 µM
TGI (OVCAR-5 ovarian): 9.11 µM and > 10 µM
GI50 (OVCAR-8 ovarian): 3.25 µM and 3.08 µM
TGI (OVCAR-8 ovarian): 18 µM and > 10 µM
GI50 (PC-3 prostate): 4.18 µM and 4.54 µM
TGI (PC-3 prostate): 17.7 µM and > 10 µM
GI50 (RPMI-8226 leukemia): 2.27 µM and 2.39 µM
TGI (RPMI-8226 leukemia): 6.11 µM and 6.27 µM
GI50 (RXF 393 renal): 1.96 µM and 1.92 µM
TGI (RXF 393 renal): 4.34 µM and 4.96 µM
GI50 (SF-268 CNS): 2.92 µM and 3.25 µM
TGI (SF-268 CNS): 11.2 µM and > 10 µM
GI50 (SF-295 CNS): 2.55 µM and 3.48 µM
TGI (SF-295 CNS): 12.3 µM and > 10 µM
GI50 (SF-539 CNS): 1.61 µM and 1.52 µM
TGI (SF-539 CNS): 6.67 µM and > 10 µM
GI50 (SK-MEL-2 melanoma): 2.67 µM and 2.87 µM
TGI (SK-MEL-2 melanoma): 5.89 µM and 9.2 µM
GI50 (SK-MEL-28 melanoma): 3.94 µM and 3.85 µM
TGI (SK-MEL-28 melanoma): 18.7 µM and > 10 µM
GI50 (SK-MEL-5 melanoma): 2.88 µM
TGI (SK-MEL-5 melanoma): 8.56 µM
GI50 (SK-OV-3 ovarian): 10.5 µM
TGI (SK-OV-3 ovarian): 23.5 µM and > 10 µM
GI50 (SN12C renal): 3.16 µM and 3.54 µM
TGI (SN12C renal): 13 µM and > 10 µM
GI50 (SNB-19 CNS): 3.79 µM and 3.96 µM
TGI (SNB-19 CNS): 15.8 µM and > 10 µM
GI50 (SNB-75 CNS): 4.72 µM and 3.54 µM
TGI (SNB-75 CNS): 15.3 µM and > 10 µM
GI50 (SR leukemia): 2.62 µM and 1.87 µM
TGI (SR leukemia): 8.37 µM and 5.45 µM
GI50 (SW-620 colon): 2.4 µM and 2.58 µM
TGI (SW-620 colon): 6.73 µM and 9.58 µM
GI50 (T-47D breast): 3.62 µM and 2.89 µM
TGI (T-47D breast): 17.3 µM and > 10 µM
GI50 (TK-10 renal): 3.6 µM and 2.84 µM
TGI (TK-10 renal): 14.6 µM and > 10 µM
GI50 (U251 CNS): 3.49 µM and 3.16 µM
TGI (U251 CNS): 20.6 µM and > 10 µM
GI50 (UACC-257 melanoma): 4.39 µM and 5.34 µM
TGI (UACC-257 melanoma): 16.7 µM and > 10 µM
GI50 (UACC-62 melanoma): 3.27 µM and 4.2 µM
TGI (UACC-62 melanoma): 11.7 µM and > 10 µM
GI50 (UO-31 renal): 2.79 µM and 2.91 µM
TGI (UO-31 renal): 11.3 µM and > 10 µM
